PubChem BioAssay AID330 (DTP/NCI, 2004)
Values joined by “and” are separate entries in the source; they are usually repeats but may differ in a detail not shown here. Equal entries are not always repeated. Inconclusive results and toxic doses are left out. How the source made its calls: active means survival T/C of 150% or more; inactive means T/C below 125% in these data.

System: P388 leukemia ip, CD2F1 mice, survival T/C
Test: NCI In Vivo Anticancer Drug Screen. Data for tumor model P388 Leukemia (intraperitoneal) in CD2F1 (CDF1) mice
Conditions: endpoint: median survival time, higher = longer survival
Procedure, shortened: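 Mice carrying the transplanted tumor received test compound or vehicle. Survival was recorded in each group, and the value is the treated-group measurement divided by that of the vehicle-treated control group.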

[1] = dose: 50.0 mg/kg/injection, schedule: Q01DX005 (ip), vehicle: saline with Tween-80
[2] = dose: 100.0 mg/kg/injection, schedule: Q01DX005 (ip), vehicle: saline with Tween-80
[3] = dose: 25.0 mg/kg/injection, schedule: Q04DX003 (ip), vehicle: saline with Tween-80
[4] = dose: 50.0 mg/kg/injection, schedule: Q04DX003 (ip), vehicle: saline with Tween-80
[5] = dose: 100.0 mg/kg/injection, schedule: Q04DX003 (ip), vehicle: saline with Tween-80
[6] = dose: 25.0 mg/kg/injection, schedule: Q01DX009 (ip), vehicle: saline with Tween-80
[7] = dose: 50.0 mg/kg/injection, schedule: Q01DX009 (ip), vehicle: saline with Tween-80
[8] = dose: 100.0 mg/kg/injection, schedule: Q01DX009 (ip), vehicle: saline with Tween-80

Measured: T/C

O=C1Nc2ccccc2C2CCCCC12 (stereo not drawn)
inactive: [1] 107 % of control | [2] 102 % of control | dose: 200.0 mg/kg/injection, schedule: Q01DX005 (ip), vehicle: saline with Tween-80 98 % of control

COc1ccc(C(CC(=O)O)CC(=O)N(CCCl)CCCl)cc1 (stereo not drawn)
inactive: dose: 25.0 mg/kg/injection, schedule: Q01DX001 (ip), vehicle: saline 100 % of control and 102 % of control | [3] 101 % of control | dose: 25.0 mg/kg/injection, schedule: Q04DX003 (ip), vehicle: saline 102 % of control | dose: 25.0 mg/kg/injection, schedule: Q04DX003 (ip), vehicle: suspension in saline 106 % of control | dose: 50.0 mg/kg/injection, schedule: Q01DX001 (ip), vehicle: saline 100 % of control and 103 % of control | [4] 102 % of control | dose: 50.0 mg/kg/injection, schedule: Q04DX003 (ip), vehicle: saline 102 % of control | dose: 50.0 mg/kg/injection, schedule: Q04DX003 (ip), vehicle: suspension in saline 115 % of control | dose: 100.0 mg/kg/injection, schedule: Q01DX001 (ip), vehicle: saline 100 % of control and 103 % of control | [5] 101 % of control | dose: 100.0 mg/kg/injection, schedule: Q04DX003 (ip), vehicle: saline 97 % of control | dose: 100.0 mg/kg/injection, schedule: Q04DX003 (ip), vehicle: suspension in saline 124 % of control | dose: 200.0 mg/kg/injection, schedule: Q01DX001 (ip), vehicle: saline 100 % of control and 104 % of control | dose: 200.0 mg/kg/injection, schedule: Q04DX003 (ip), vehicle: saline with Tween-80 101 % of control | dose: 200.0 mg/kg/injection, schedule: Q04DX003 (ip), vehicle: saline 94 % of control
active: dose: 200.0 mg/kg/injection, schedule: Q04DX003 (ip), vehicle: suspension in saline 157 % of control

c1cnc2c(c1)Nc1cnncc1S2
inactive: dose: 100.0 mg/kg/injection, schedule: Q04DX002 (ip), vehicle: Klucel (hydroxypropylcellulose) (HPC) 98 % of control | dose: 200.0 mg/kg/injection, schedule: Q04DX002 (ip), vehicle: Klucel (hydroxypropylcellulose) (HPC) 100 % of control | dose: 400.0 mg/kg/injection, schedule: Q04DX002 (ip), vehicle: Klucel (hydroxypropylcellulose) (HPC) 92 % of control

O=C1CS(=O)(=O)C(c2ccc(Cl)cc2)N1N1C(=O)CS(=O)(=O)C1c1ccc(Cl)cc1 (stereo not drawn)
inactive: dose: 25.0 mg/kg/injection, schedule: Q01DX005 (ip), vehicle: saline with Tween-80 98 % of control and 109 % of control | [1] 95 % of control and 96 % of control | [2] 87 % of control and 95 % of control

COc1cccc2cc(C)[nH]c12
inactive: [6] 97 % of control | [7] 97 % of control | [8] 103 % of control

CCCc1c(Cl)nc(Cl)nc1Cl
inactive: [6] 104 % of control | [3] 113 % of control | [7] 118 % of control | [4] 121 % of control | dose: 66.0 mg/kg/injection, schedule: Q01DX009 (ip), vehicle: saline with Tween-80 116 % of control | [8] 100 % of control | [5] 113 % of control

N#Cc1[nH]nc2nc[nH]c(=O)c12
inactive: dose: 100.0 mg/kg/injection, schedule: Q04DX002 (ip), vehicle: water 114 % of control | dose: 200.0 mg/kg/injection, schedule: Q04DX002 (ip), vehicle: water 113 % of control

CC(C)C1(c2ccsc2)NC(=O)NC1=O (stereo not drawn)
inactive: dose: 50.0 mg/kg/injection, schedule: Q01DX009 (ip), vehicle: Klucel (hydroxypropylcellulose) (HPC) 107 % of control | dose: 100.0 mg/kg/injection, schedule: Q01DX009 (ip), vehicle: Klucel (hydroxypropylcellulose) (HPC) 99 % of control | dose: 200.0 mg/kg/injection, schedule: Q01DX009 (ip), vehicle: Klucel (hydroxypropylcellulose) (HPC) 96 % of control

O=C(/C=C\c1ccc(C2OCCO2)cc1)c1ccccc1
inactive: dose: 100.0 mg/kg/injection, schedule: Q04DX002 (ip), vehicle: saline with Tween-80 111 % of control | dose: 200.0 mg/kg/injection, schedule: Q04DX002 (ip), vehicle: saline with Tween-80 103 % of control | dose: 400.0 mg/kg/injection, schedule: Q04DX002 (ip), vehicle: saline with Tween-80 92 % of control
